Reference: patent US9040691B2, “Hydroxymethylaryl-substituted pyrrolotriazines as ALK1 inhibitors” (BAYER INTELLECTUAL PROPERTY GMBH, priority 2011, dated 2015)

How the values were obtained:
[1] = test system: hSmad7 mRNA in BMP9-stimulated HMVEC; assay: Smad7 target gene induction: HMVEC cell assay and TaqMan expression analysis; format: cell-based; settings: Homo sapiens, hBMP9 stimulation, Smad7 mRNA by TaqMan
Experimental: B-2a. Smad7 Target Gene Induction: HMVEC Cell Assay and TaqMan Expression Analysis
Activation of ALK1 receptors by BMP9 induces the Smad1/5 signalling pathway and enhances expression of target genes Smad6, Smad7 and Id-1. Induction of Smad7-mRNA in BMP9-stimulated endothelial cells was determined to monitor the cellular potency of ALK1 kinase inhibitors.
Human microvascular endothelial cells (IIMVECadult, Cell Systems, St. Katharinen) were seeded in complete ENGS MV medium with all supplements (LifeLine Cell Technology) in 96 well plates with 10 000 cells per well. After 4 h incubation at 37° C. and 7.5% CO2 in a humidified incubator, medium was replaced with minimal medium (ENGS MV without supplements containing 0.02% FCS). After 16 h, test compounds or medium (controls) were added to the cultures, followed 30 min later by addition of hBMP9 (R&D Systems). Medium was removed 1 to 4 h later, plates were gently washed with phosphate-buffered saline, and cells were lysed with 150 μl per well of ice-cold RLT buffer (Qiagen).
Total cellular RNA was isolated with the Trizol® reagent protocol according to the manufacturer's specifications (Invitrogen, USA) and treated with DNAseI to remove genomic DNA contamination.
For relative quantitation of the mRNA distribution of hSmad7, total RNA from each sample was first reverse-transcribed using the ImProm-II Reverse Transcription System (Promega, USA) according to the manufacturer's protocol. The final volume was adjusted to 200 μl with water.
For relative quantitation of selected mRNA, the Applied Bioscience ABI 7900HT Sequence Detection System was used according to the manufacturer's specifications and protocols. PCR reactions were set up to quantitate hSmad7- and the housekeeping gene L32-mRNA. Forward and reverse primers and probes for hSmad7 and L32 were designed using the Applied Bioscience ABI Primer Expressim software and were synthesized by Eurogentec (Belgium). The hSmad7 forward primer sequence was: Primer 1 (SEQ ID NO 1). The hSmad7 reverse primer sequence was: Primer 2 (SEQ ID NO 2). Probe 1 (SEQ ID NO 3), labelled with FAM as the reporter dye and TAMRA as the quencher, was used as a probe for hSmad7. The L32 forward primer sequence was: Primer 3 (SEQ ID NO 4). The L32 reverse primer sequence was: Primer 4 (SEQ ID NO 5). Probe 2 (SEQ ID NO 6), labelled with FAM as the reporter dye and TAMRA as the quencher, was used as a probe for L32.
The following reagents were prepared in a total of 20 μl added per well: 1× qPCR-MasterMix (Eurogentec, Belgium) and hSmad7 forward and reverse primers each at 200 nM, 200 nM hSmad7 FAM/TAMRA-labelled probe 1 (SEQ ID NO 3), and 5 μl of template cDNA. Correspondingly, a second mix in a total of 20 μl was prepared using L32 FAM/TAMRA-labelled probe 2 (SEQ ID NO 6) and L32 forward and reverse primers added per well in parallel samples.
Thermal cycling parameters were 2 min at 50° C., followed by 10 min at 95° C., followed by 40 cycles of melting at 95° C. for 15 sec and annealing/extending at 60° C. for 1 min.
Calculation of Relative Expression:
The Ct (cycle threshold) values were calculated from the turning point of PCR product quantity curves by the ΔΔCt method (delta-delta Ct): ΔCt=CthSmad7−CtL32; relative expression=2^(15-ΔCt).
IC50 values of test compounds were calculated on basis of relative Smad7 expressions at different compound concentrations.

[2] = test system: laser-induced choroidal neovascularisation; assay: Topical efficacy in the laser-induced choroidal neovascularization (CNV) model; format: in vivo, rat; settings: Brown-Norway rats, eye drops 10 μl of 20 mg/ml twice daily; for vascular leakage [HRA score]: angiography day 21, score 0-3; for choroidal neovascularisation lesion size: day 23
Experimental: B-4. Topical Efficacy in the Laser-Induced Choroidal Neovascularization (CNV) Model
For this purpose, 65 pigmented Brown-Norway rats with no visible sign of ocular defects were selected and randomly assigned to six different groups (for n-numbers, see table below). On day 0, the animals were anaesthetized by an intraperitoneal injection (15 mg/kg xylazine and 80 mg/kg ketamine). After instillation of one drop of 0.5% tropicamide to dilate the pupils, choroidal neovascularisation was induced by burning six holes into the retina (disruption of Bruch's membrane) of one eye per animal using a 532 nm argon laser (lesion size: 50 μm; laser intensity: 150 mW; stimulus duration: 100 ms). Test compounds and vehicle controls were topically administered twice daily by instilling respective eye drops into the affected eye. The test compounds were dosed as follows: 10 μl of an eye drop formulation containing 20 mg/ml of the respective test compound suspended either in 100% liquid paraffin or in an aqueous vehicle (HPMC 15 cP 3.5%, polysorbate 80 0.5%, NaCl 0.9% in water) were applied to the affected eye twice daily at a 10 to 14 hour interval during the complete observation period of 23 days. Control animals received the respective vehicle (100% liquid paraffin or aqueous vehicle) topically twice daily. The body weight of all animals was recorded before the start and once daily during the study.
An angiography was performed on day 21 using a fluorescence fundus camera (Kowe). Here, after anaesthesia and pupillary dilation, 10% sodium fluorescein dye was injected subcutaneously, and images were recorded 2 and 10 min after dye injection. The vascular leakage of the fluorescein on the angiograms was evaluated by three different examiners who were blinded for group allocation (test compound versus vehicle), and scored with 0 (no leakage) to 3 (strongly stained).
On day 23, animals were sacrificed, and eyes were harvested and fixed in 4% paraformaldehyde solution for 1 hour at room temperature. After washing, the retina was carefully peeled, washed, blocked and stained with a FITC-isolectine B4 antibody in order to visualize the vasculature. Then, the sclera-choroids were flat-mounted and examined under a fluorescence microscope (Keyence Biozero) at 488 nm excitation wavelength. The area (in μm^2) of choroidal neovascularization was measured using ImageTool software.

Row | IC50 [1] [nM] | Compound | vascular leakage [HRA score] ([2]; aqueous vehicle) | choroidal neovascularisation lesion size ([2]; aqueous vehicle) [μm^2 × 10 000] | vascular leakage [HRA score] ([2]; paraffin vehicle) | choroidal neovascularisation lesion size ([2]; paraffin vehicle) [μm^2 × 10 000]
1 | 100 | CCCc1cc(-c2ccc(CO)cc2)c2c(N)ncnn12 [Example 1, [4-(4-Amino-7-propylpyrrolo[2,1-f][1,2,4]triazin-5-yl)phenyl]methanol] | – | – | – | –
2 | 125 | CCCc1cc(-c2cc(F)c(CO)c(F)c2)c2c(N)ncnn12 [Example 2, [4-(4-Amino-7-propylpyrrolo[2,1-f][1,2,4]triazin-5-yl)-2,6-difluorophenyl]methanol] | – | – | – | –
3 | 180 | Nc1ncnn2c(CCCO)cc(-c3ccc(CO)cc3)c12 [Example 3, 3-{4-Amino-5-[4-(hydroxymethyl)phenyl]pyrrolo[2,1-f][1,2,4]triazin-7-yl}propan-1-ol] | – | – | – | –
4 | 150 | Nc1ncnn2c(C(O)C3CC3)cc(-c3cc(F)c(CO)c(F)c3)c12 (stereo not drawn) [Example 5, {4-Amino-5-[3,5-difluoro-4-(hydroxymethyl)phenyl]pyrrolo[2,1-f][1,2,4]triazin-7-yl}(cyclopropyl)methanol] | – | – | – | –
5 | 130 | Nc1ncnn2c1c(-c1cc(F)c(CO)c(F)c1)cc2[C@H]1CC[C@H](O)CC1 [Example 7, trans-4-[4-Amino-5-[3,5-difluoro-4-(hydroxymethyl)phenyl]pyrrolo[2,1-f][1,2,4]triazin-7-yl]-cyclohexanol] | 1.49 ± 0.24 | 6.14 ± 1.60 | 1.52 ± 0.21 | 6.21 ± 0.99
6 | 90 | Nc1ncnn2c([C@@H]3CCCNC3)cc(-c3cc(F)c(CO)c(F)c3)c12 [Example 11, (4-{4-Amino-7-[(3R)-piperidin-3-yl]pyrrolo[2,1-f][1,2,4]triazin-5-yl}-2,6-difluorophenyl)methanol] | 1.66 ± 0.29 | 5.50 ± 1.38 | 1.41 ± 0.29 | 6.45 ± 1.63
7 | 120 | Nc1nc(-c2cc(-c3ccc(CO)cc3)c3c(N)ncnn23)cs1 [Example 17, {4-[4-Amino-7-(2-amino-1,3-thiazol-4-yl)pyrrolo[2,1-f][1,2,4]triazin-5-yl]phenyl}methanol] | – | – | – | –
8 | 4400 | Nc1ncnn2c(CN3CCOCC3)cc(-c3cc(F)c(CO)c(F)c3)c12 [Example 20, {4-[4-Amino-7-(morpholin-4-ylmethyl)pyrrolo[2,1-f][1,2,4]triazin-5-yl]-2,6-difluorophenyl}-methanol] | – | – | – | –
9 | 6000 | Nc1ncnn2c(CN3CCOCC3)cc(-c3ccc(CO)c(F)c3)c12 [Example 21, {4-[4-Amino-7-(morpholin-4-ylmethyl)pyrrolo[2,1-f][1,2,4]triazin-5-yl]-2-fluorophenyl}methanol] | – | – | – | –
10 | 800 | Nc1ncnn2c(CN3CCOCC3)cc(-c3ccc(CO)c(Cl)c3)c12 [Example 22, {4-[4-Amino-7-(morpholin-4-ylmethyl)pyrrolo[2,1-f][1,2,4]triazin-5-yl]-2-chlorophenyl}methanol] | – | – | – | –
